Data reported in patent publication US11731944B2, “SARS-CoV-2 inhibitors for treating coronavirus infections” (priority 2021, dated 2023).

Columns and labels:
SARS-CoV-2 MPRO = SARS-CoV-2 MPRO (Severe acute respiratory syndrome coronavirus 2 (2019-nCoV) (SARS-CoV-2), UniProt P0DTD1); assay: SARS-CoV-2 Mpro enzymatic assay (FRET substrate cleavage); format: biochemical; settings: C-His6-tagged SARS-CoV-2 MPRO 25 nM, 30 min pre-incubation at RT, 60 min at 30° C., 10 doses from 25 μM; read-out: M pro IC50
SARS-CoV-2 = assay: In vitro antiviral cell-based assay (live SARS-CoV-2), plaque reduction assay in VeroE6 cells; settings: Severe acute respiratory syndrome coronavirus 2, Vero C1008, footnote key printed as IC50 (nM)

Structure (SMILES)	IC50 (SARS-CoV-2 MPRO) [nM]	EC50 (SARS-CoV-2) [nM]
C[C@](C(=O)NC1CCC(F)(F)CC1)(c1cncnc1)N(C(=O)[C@H](F)Cl)c1ccc(-c2cncs2)cc1 (single isomer, unassigned) [Example 1a]	< 100	100 to 1000
C[C@](C(=O)NC1CCC(F)(F)CC1)(c1cncnc1)N(C(=O)[C@H](F)Cl)c1ccc2c(c1)OC(F)(F)O2 [Example 113a]	< 100	
C[C@@](C(=O)NC1CCC(F)(F)CC1)(c1cncnc1)N(C(=O)[C@H](F)Cl)c1ccc2c(c1)OC(F)(F)O2 [Example 113b]	> 10000	
C[C@](C(=O)NC1CCOCC1)(c1cncnc1)N(C(=O)C(Cl)Cl)c1ccc(OC(F)(F)Cl)cc1 [Example 115a]	< 100	
C[C@@](C(=O)NC1CCOCC1)(c1cncnc1)N(C(=O)C(Cl)Cl)c1ccc(OC(F)(F)Cl)cc1 [Example 115b]	1000 to 10000	
